In US11859205B2, “Medium for culturing stem cells” (AJINOMOTO CO., INC., priority 2013, dated 2024):

Legend:
[1] = system: iPS cells; test: Viable iPS cell number with purified albumin re-carrying fatty acid (Example 4, FIG. 4); format: cell-based, human; settings: fatty acid re-adsorbed to albumin, 1 week
Protocol: Proliferative effect of various test compounds on induced pluripotent stem cell (iPS cell) was evaluated. As the iPS cell, 201B7 strain purchased from iPS Academia Japan, Inc. was used. Cell culture was performed under conditions of 5% CO2/37° C. and using a culture vessel (Nippon Becton Dickinson Company, Ltd., Falconculture petri dish or Falconculture plate) coated with a basal membrane matrix.
Various test compounds were added at given concentrations to a medium of “E8” composition (disclosed in Nature Methods, 2011, 8, 424-429, which is incorporated herein by reference in its entirety) currently considered to be the minimum composition for cultivating human pluripotent stem cells, and used for culture, from which the effect was studied.
The solution was shaken at 37° C. for 7 hours, left standing at 4° C. overnight, and filtered with a 0.22 μm syringe filter. […] The mixture was added to a medium such that the final concentration of albumin was 2.6 g/L.
The final concentration in and the amount of addition to the medium are also the same.
Using the medium produced as mentioned above, the influence of each fatty acid on the proliferation of iPS cells was studied. A 6-well plate coated with a fragment containing an active domain of laminin 511 at 5 μg/well (iMatrix-511 (Nippi, Incorporated)) as a basal membrane matrix was used. iPS cells were single-cell seeded at 13,000 cells/well and cultured for 1 week. Y-27632 (NACALAI TESQUE, INC.: 08945-84) was added at a final concentration of 10 μM only to a medium to be used for seeding. As a positive control, iPS cells were cultured using an albumin free of re-adsorption of fatty acid, i.e., albumin after a fatty acid removal treatment.
The cells were detached from each well by TrypLE Select (Life Technologies: 12563-011), and the number of the viable cells was measured.

[2] = system: stem cells; settings: WO 2013/006675; cited from earlier work
[3] = final concentration in medium 28 μM
[4] = final concentration in medium 57 μM

For CCCCCCCCCCCCCCCCCC(=O)O [stearic acid], the “effect on proliferation of iPS cells (number of viable cells)” value (from here on “effect on proliferation of iPS cells”) [1, 3] was “the cells died” and the “effect on proliferation of iPS cells” value [1, 4] was “the cells died”.

With CCCCC/C=C\C/C=C\C/C=C\C/C=C\CCCC(=O)O [arachidonic acid] the “effect on proliferation of iPS cells” value [1, 3] was “the cells died” and the “effect on proliferation of iPS cells” value [1, 4] was “the cells died”.

With CCCCC/C=C\C/C=C\CCCCCCCC(=O)O [linoleic acid] the “effect on proliferation of iPS cells” value [1, 3] was “markedly suppressed” and the “effect on proliferation of iPS cells” value [1, 4] was “the cells died”.

In the case of CCCCCCCC(=O)O [octanoic acid], the “effect on culture of stem cells” value [2] is given as “harmful”.

For CCCCCCCCCCCCCCCC(=O)O [palmitic acid], the “effect on proliferation of iPS cells” value [1, 3] was “the cells died” and the “effect on proliferation of iPS cells” value [1, 4] was “the cells died”.

With CCCCCCCC/C=C\CCCCCCCC(=O)O [oleic acid] the “effect on proliferation of iPS cells” value [1, 3] was “smaller than that of the positive control” and the “effect on proliferation of iPS cells” value [1, 4] was “smaller than that of the positive control”.
